Legend:
Settings in all cases: Compound concentration 1.0 uM
[1] = molecular target: Serine/threonine-protein kinase PAK 2 (Homo sapiens) (UniProt Q13177)
[2] = molecular target: NT-3 growth factor receptor (Homo sapiens) (UniProt Q16288)
[3] = molecular target: CDK18/Cyclin Y (Homo sapiens) (UniProt Q07002+Q8ND76)
[4] = molecular target: T1, MAP kinase-activated protein kinase 5 (Homo sapiens) (UniProt Q8IW41)
T1 sequence (whole entry): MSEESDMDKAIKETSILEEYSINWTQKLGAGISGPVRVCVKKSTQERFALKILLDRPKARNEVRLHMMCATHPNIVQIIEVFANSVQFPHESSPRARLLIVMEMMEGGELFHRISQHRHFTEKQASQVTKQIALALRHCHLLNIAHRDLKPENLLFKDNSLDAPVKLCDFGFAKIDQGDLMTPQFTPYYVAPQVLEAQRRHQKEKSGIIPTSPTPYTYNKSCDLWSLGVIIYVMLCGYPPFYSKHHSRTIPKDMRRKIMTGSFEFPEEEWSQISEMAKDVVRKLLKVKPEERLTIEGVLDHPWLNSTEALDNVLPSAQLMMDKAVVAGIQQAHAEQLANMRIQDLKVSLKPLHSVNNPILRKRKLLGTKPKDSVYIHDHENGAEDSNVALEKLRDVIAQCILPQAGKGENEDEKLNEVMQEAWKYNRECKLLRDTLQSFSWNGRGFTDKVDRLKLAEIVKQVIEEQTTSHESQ

[5] = molecular target: Cyclin-dependent kinase 2/cyclin A (Homo sapiens) (UniProt P24941+P20248+P78396)
[6] = molecular target: T2, Serine/threonine-protein kinase Nek1 (Homo sapiens) (UniProt Q96PY6)
T2 sequence (whole entry): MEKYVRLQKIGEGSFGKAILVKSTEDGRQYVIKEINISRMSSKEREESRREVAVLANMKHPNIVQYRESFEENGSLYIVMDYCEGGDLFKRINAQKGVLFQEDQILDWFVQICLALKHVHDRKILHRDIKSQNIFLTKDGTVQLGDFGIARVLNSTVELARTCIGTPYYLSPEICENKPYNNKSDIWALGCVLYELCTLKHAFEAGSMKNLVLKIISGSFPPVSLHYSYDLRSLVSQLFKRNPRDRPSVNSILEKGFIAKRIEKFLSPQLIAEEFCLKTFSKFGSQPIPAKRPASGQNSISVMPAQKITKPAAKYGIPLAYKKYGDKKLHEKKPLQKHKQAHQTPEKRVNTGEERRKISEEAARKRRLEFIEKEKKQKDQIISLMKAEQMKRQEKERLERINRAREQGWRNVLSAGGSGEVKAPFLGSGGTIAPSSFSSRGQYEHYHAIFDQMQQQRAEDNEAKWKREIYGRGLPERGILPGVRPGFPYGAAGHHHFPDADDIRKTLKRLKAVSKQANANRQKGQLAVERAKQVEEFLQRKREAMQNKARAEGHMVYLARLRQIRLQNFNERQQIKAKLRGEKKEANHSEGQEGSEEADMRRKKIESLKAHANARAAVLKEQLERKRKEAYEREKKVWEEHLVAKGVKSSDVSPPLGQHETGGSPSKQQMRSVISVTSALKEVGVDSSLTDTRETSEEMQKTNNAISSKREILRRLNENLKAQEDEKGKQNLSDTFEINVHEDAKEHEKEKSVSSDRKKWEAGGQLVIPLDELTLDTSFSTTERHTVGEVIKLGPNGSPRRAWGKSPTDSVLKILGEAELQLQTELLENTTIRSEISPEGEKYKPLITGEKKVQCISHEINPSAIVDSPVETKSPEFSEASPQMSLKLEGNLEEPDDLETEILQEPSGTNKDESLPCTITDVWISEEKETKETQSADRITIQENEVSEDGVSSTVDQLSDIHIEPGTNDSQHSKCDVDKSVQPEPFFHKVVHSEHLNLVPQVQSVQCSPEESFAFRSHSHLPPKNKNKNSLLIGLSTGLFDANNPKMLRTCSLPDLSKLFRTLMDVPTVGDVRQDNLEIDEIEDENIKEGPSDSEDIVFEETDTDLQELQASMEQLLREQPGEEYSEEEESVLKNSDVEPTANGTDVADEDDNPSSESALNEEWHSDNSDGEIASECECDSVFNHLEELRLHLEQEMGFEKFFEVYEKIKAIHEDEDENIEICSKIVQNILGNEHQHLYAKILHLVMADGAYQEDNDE

[7] = molecular target: Serine/threonine-protein kinase Nek6 (Homo sapiens) (UniProt Q9HC98)
[8] = molecular target: T3, Serine/threonine-protein kinase D1 (Homo sapiens) (UniProt Q15139)
T3 sequence (whole entry): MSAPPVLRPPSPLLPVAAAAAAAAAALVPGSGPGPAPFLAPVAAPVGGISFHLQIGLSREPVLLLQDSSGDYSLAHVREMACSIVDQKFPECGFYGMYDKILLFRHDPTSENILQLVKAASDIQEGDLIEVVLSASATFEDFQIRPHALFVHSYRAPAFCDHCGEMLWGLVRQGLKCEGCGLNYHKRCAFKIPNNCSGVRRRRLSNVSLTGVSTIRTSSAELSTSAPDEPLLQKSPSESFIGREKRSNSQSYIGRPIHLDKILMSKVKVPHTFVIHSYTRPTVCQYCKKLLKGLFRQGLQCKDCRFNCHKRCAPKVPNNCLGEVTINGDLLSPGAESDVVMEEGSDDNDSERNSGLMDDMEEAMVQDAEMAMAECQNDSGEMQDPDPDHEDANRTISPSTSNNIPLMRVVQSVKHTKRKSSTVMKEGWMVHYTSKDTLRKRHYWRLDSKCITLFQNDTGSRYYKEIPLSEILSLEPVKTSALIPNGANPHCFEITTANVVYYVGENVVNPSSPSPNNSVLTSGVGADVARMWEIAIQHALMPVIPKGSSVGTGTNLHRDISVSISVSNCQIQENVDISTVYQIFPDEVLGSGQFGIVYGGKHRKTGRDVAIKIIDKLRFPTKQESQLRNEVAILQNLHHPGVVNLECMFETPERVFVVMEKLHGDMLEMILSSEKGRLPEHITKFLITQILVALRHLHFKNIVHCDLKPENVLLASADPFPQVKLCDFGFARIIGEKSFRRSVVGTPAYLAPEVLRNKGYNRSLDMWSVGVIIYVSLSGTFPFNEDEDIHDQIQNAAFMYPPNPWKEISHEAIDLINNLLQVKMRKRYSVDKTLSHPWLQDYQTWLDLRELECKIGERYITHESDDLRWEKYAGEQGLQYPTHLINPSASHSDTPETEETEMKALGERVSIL

[9] = molecular target: Cyclin-dependent kinase-like 4 (Homo sapiens) (UniProt Q5MAI5)

Measured: % residual kinase activity

Sequence of NT-3 growth factor receptor (Homo sapiens) (Q16288 32-839 limits assumed): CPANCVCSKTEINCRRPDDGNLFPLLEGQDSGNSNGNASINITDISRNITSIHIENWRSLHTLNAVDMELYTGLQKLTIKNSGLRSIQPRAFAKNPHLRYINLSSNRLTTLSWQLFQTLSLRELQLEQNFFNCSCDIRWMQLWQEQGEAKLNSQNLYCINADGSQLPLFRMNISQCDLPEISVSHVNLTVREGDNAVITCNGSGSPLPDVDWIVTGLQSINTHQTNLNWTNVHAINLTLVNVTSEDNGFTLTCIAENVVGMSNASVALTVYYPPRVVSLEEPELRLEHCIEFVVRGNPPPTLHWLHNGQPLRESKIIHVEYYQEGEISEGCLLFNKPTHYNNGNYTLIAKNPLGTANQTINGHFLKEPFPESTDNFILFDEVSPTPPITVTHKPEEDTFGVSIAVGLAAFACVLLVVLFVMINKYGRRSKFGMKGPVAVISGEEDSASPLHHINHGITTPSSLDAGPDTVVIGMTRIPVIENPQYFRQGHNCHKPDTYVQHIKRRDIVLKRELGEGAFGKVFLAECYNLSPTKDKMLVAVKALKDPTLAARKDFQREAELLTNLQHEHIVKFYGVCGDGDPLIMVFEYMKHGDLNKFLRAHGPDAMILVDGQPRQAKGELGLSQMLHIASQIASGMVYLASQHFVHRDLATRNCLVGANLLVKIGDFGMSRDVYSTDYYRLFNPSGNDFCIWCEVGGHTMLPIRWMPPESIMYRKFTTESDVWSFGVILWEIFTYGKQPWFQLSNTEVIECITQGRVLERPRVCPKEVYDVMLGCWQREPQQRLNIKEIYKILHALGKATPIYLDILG
Sequence of Cyclin-dependent kinase-like 4 (Homo sapiens) (Q5MAI5 whole entry): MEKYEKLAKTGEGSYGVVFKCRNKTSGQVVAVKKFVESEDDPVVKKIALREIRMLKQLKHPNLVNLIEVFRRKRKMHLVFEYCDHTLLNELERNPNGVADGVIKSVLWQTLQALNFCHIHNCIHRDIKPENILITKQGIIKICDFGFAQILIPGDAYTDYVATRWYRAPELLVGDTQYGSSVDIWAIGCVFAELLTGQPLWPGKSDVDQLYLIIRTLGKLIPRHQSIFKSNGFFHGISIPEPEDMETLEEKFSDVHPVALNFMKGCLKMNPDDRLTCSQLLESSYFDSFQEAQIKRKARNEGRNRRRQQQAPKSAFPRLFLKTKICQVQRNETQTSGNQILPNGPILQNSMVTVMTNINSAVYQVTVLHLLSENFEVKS
Sequence of Serine/threonine-protein kinase Nek6 (Homo sapiens) (Q9HC98 whole entry): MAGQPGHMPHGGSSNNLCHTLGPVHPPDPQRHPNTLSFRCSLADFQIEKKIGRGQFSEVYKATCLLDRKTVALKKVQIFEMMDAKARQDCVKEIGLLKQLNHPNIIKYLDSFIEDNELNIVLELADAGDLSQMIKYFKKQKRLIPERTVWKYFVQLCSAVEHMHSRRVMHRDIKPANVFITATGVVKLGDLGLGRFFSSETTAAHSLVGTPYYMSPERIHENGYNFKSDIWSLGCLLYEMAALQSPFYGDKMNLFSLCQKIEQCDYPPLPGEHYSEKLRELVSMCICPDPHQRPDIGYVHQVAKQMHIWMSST
Sequence of Serine/threonine-protein kinase PAK 2 (Homo sapiens) (Q13177 whole entry): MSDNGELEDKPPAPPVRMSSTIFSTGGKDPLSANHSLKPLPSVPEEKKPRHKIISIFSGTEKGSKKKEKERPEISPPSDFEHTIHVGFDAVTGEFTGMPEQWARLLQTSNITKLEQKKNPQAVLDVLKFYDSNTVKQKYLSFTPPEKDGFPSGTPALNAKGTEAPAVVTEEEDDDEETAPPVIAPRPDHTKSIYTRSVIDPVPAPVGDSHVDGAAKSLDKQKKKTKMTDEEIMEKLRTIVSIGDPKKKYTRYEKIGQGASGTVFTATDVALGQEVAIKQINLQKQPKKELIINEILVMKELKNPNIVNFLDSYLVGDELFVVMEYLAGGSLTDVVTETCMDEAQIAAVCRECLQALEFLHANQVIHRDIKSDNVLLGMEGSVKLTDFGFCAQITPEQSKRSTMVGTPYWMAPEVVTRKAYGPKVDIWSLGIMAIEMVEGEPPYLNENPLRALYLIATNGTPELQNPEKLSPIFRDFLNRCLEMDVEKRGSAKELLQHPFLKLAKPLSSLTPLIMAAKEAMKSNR

CN1CCN(c2cnc3c(C4CCN(C(=O)c5ccc(OC(F)(F)F)cc5N)CC4)ncnc3c2)CC1 [BAY-885]
inactive: [1] 108% | [2] 123% | [3] 100% | [4] 109% | [5] 105% | [6] 98% | [7] 125% | [8] 127% | [9] 103%

Reference: ChEMBL document CHEMBL4507268 (2021)
